{
  "source": "patent US10085973B2",
  "about": "“Pharmaceutical composition containing a compound having a thrombopoietin receptor agonistic activity” (Shionogi & Co., Ltd., priority 2012, dated 2018)",
  "origin": "cited, not measured here",
  "test_system": "chronic liver disease patients with platelet count of less than 5×10^4/μL",
  "details": "cited from earlier work",
  "note": "Where two headings read alike, the source gives them in different places.",
  "data": [
    {"smiles": "CC1=NN(c2ccc(C)c(C)c2)C(=O)/C1=N\\Nc1cccc(-c2cccc(C(=O)O)c2)c1O", "note": "[Eltrombopag]", "values": [
      {"measurement": "avoidance of platelet transfusion", "setting": "active drug group, administered for 2 weeks before invasive procedures", "value": 72, "unit": "%"},
      {"measurement": "incidence of portal vein thrombosis", "setting": "active drug group", "value": 4, "unit": "%"},
      {"measurement": "risk of development of portal vein thrombosis", "setting": "group having platelet count of 20×10^4/μL or higher during the investigation period", "value": 10.6, "unit": "%"},
      {"measurement": "risk of development of portal vein thrombosis", "setting": "group with platelet count of less than 20×10^4/μL", "value": 1.2, "unit": "%"},
      {"measurement": "risk of portal vein thrombosis, group 20×10^4/μL or higher vs group less than 20×10^4/μL", "setting": "human, in vivo", "value": "about 9 times"},
      {"measurement": "cases with platelet count 20×10^4/μL or higher at the time of development of portal vein thrombosis", "setting": "out of 6 cases in the active drug group", "value": 5}
    ]}
  ]
}
